Experimental data published in patent US20070128217A1 (priority 2003, published 2007).

Legend:
[1] = tested on: antibodies in sera from SARS patients (sera 1a, 1b, 2, 6, 37, 62, London, SARS-yellow, SARS-green); type: binding, human; set-up: Binding of serum 6 to linear peptides of protein X1 of SARS-CoV Urbani / Binding of serum 37 to linear peptides of protein X1 of SARS-CoV Urbani / Binding of serum 6 to looped/cyclic peptide (PEPSCAN-ELISA) / Binding of serum 37 to looped/cyclic peptide (PEPSCAN-ELISA) / Binding of serum 37 to looped/cyclic peptides of protein X1 of SARS-CoV Urbani / Binding of serum 6 to linear peptides of protein X2 / Binding of serum 37 to linear peptides of protein X2 / Binding of serum 37 to looped/cyclic peptides of protein X2 of SARS-CoV Urbani / Binding of serum 6 to linear peptides of protein M of SARS-CoV Urbani / Binding of serum 37 to linear peptides of protein M of SARS-CoV Urbani / Binding of serum 6 to looped/cyclic peptides of protein M of SARS-CoV Urbani / Binding of serum 37 to looped/cyclic peptides of protein M of SARS-CoV Urbani / Binding of serum 6 to linear peptides of protein X3 of SARS-CoV Urbani / Binding of serum 37 to linear peptides of protein X3 of SARS-CoV Urbani / Binding of serum 37 to looped/cyclic peptides of protein X3 of SARS-CoV Urbani / Binding of serum 6 to linear peptides of protein X4 of SARS-CoV Urbani / Binding of serum 37 to linear peptides of protein X4 of SARS-CoV Urbani / Binding of serum 37 to looped/cyclic peptides of protein X4 of SARS-CoV Urbani / Binding of serum 6 to linear peptides of protein X5 of SARS-CoV Urbani / Binding of serum 37 to linear peptides of protein X5 of SARS-CoV Urbani / Binding of serum 37 to looped/cyclic peptides of protein X5 of SARS-CoV Urbani / Binding of serum 6 to linear peptides of protein N of SARS-CoV Urbani / Binding of serum 37 to linear peptides of protein N of SARS-CoV Urbani / Binding of serum 6 to linear peptide (PEPSCAN-ELISA) / Binding of serum 1a to looped/cyclic peptides of protein N of SARS-CoV Urbani / Binding of serum 1b to looped/cyclic peptides of protein N of SARS-CoV Urbani / Binding of serum 2 to looped/cyclic peptides of protein N of SARS-CoV Urbani / Binding of serum 6 to looped/cyclic peptides of protein N of SARS-CoV Urbani / Binding of serum 37 to looped/cyclic peptides of protein N of SARS-CoV Urbani / Binding of serum 62 to looped/cyclic peptides of protein N of SARS-CoV Urbani / Binding of serum London to looped/cyclic peptides of protein N of SARS-CoV Urbani / Binding of serum SARS-green to looped/cyclic peptides of protein N of SARS-CoV Urbani: unit not given here
[2] = tested on: rabbit serum obtained by immunizing a rabbit with the SARS-CoV strain Frankfurt 1; type: binding; set-up: Binding of a rabbit serum to linear peptides / Binding of a rabbit serum to looped peptides / Rabbit serum linear peptides / Rabbit serum looped peptides / Binding of a rabbit serum to linear peptides of protein N of SARS-CoV Urbani (Rabbit serum linear peptides) / Binding of a rabbit serum to looped/cyclic peptides of protein N of SARS-CoV Urbani (Rabbit serum looped peptides): unit not given here
[3] = tested on: control sera (pooled serum of ten healthy LUMC hospital workers; commercial negative donor pooled serum from the Dutch bloodbank); type: binding, human; set-up: Binding of Control serum LUMC to linear peptides / Binding of Control serum Blood-bank to linear peptides / Binding of Control serum LUMC to looped peptides / Binding of Control Serum Blood-Bank to Looped peptides / Binding of Control serum LUMC to linear peptides of the protein M of SARS-CoV Urbani / Binding of Control serum Blood-bank to linear peptides of the protein M of SARS-CoV Urbani / Binding of Control serum LUMC to looped peptides of the protein M of SARS-CoV Urbani / Binding of Control Serum Blood-Bank to Looped peptides of the protein M of SARS-CoV Urbani: unit not given here

WNLDVIISSIVRQLF
Binding of serum 1a to linear peptides of protein X3 of SARS-CoV Urbani [1]: 0.7
Binding of serum 1a to looped/cyclic peptides of protein X3 of SARS-CoV Urbani [1]: 0.5
Binding of serum 1b to linear peptides of protein X3 of SARS-CoV Urbani [1]: 0.2
Binding of serum 1b to looped/cyclic peptides of protein X3 of SARS-CoV Urbani [1]: 0.3
Binding of serum 2 to linear peptides of protein X3 of SARS-CoV Urbani [1]: 0.4
Binding of serum 2 to looped/cyclic peptides of protein X3 of SARS-CoV Urbani [1]: 0.4
Binding of serum 6 to linear peptides of protein X3 of SARS-CoV Urbani [1]: 0.4
Binding of serum 6 to looped/cyclic peptides of protein X3 of SARS-CoV Urbani [1]: 0.4
Binding of serum 37 to linear peptides of protein X3 of SARS-CoV Urbani [1]: 0.6
Binding of serum 37 to looped/cyclic peptides of protein X3 of SARS-CoV Urbani [1]: 0.4
Binding of serum 62 to linear peptides of protein X3 of SARS-CoV Urbani [1]: 0.6
Binding of serum 62 to looped/cyclic peptides of protein X3 of SARS-CoV Urbani [1]: 0.4
Binding of serum London to linear peptides of protein X3 of SARS-CoV Urbani [1]: 0.5
Binding of serum London to looped/cyclic peptides of protein X3 of SARS-CoV Urbani [1]: 0.2
Binding of serum SARS-green to linear peptides of protein X3 of SARS-CoV Urbani [1]: 0.2
Binding of serum SARS-green to looped/cyclic peptides of protein X3 of SARS-CoV Urbani [1]: 0.2
Binding of serum SARS-yellow to linear peptides of protein X3 of SARS-CoV Urbani [1]: 0.2
Binding of serum SARS-yellow to looped/cyclic peptides of protein X3 of SARS-CoV Urbani [1]: 0.5
Rabbit serum linear peptides [2]: 0.1
Rabbit serum looped peptides [2]: 0.2
Binding of Control Serum Blood-Bank to Looped peptides of the protein X3 of SARS-CoV Urbani [3]: 0.8
Binding of Control serum Blood-bank to linear peptides of the protein X3 of SARS-CoV Urbani [3]: 0.6
Binding of Control serum LUMC to linear peptides of the protein X3 of SARS-CoV Urbani [3]: 0.3
Binding of Control serum LUMC to looped peptides of the protein X3 of SARS-CoV Urbani [3]: 0.7

WPVTLACFVLAAVYR
Binding of serum 1a to linear peptides of protein M of SARS-CoV Urbani [1]: 0.7
Binding of serum 1a to looped/cyclic peptides of protein M of SARS-CoV Urbani [1]: 0.8
Binding of serum 1b to linear peptides of protein M of SARS-CoV Urbani [1]: 0.5
Binding of serum 1b to looped/cyclic peptides of protein M of SARS-CoV Urbani [1]: 0.6
Binding of serum 2 to linear peptides of protein M of SARS-CoV Urbani [1]: 0.4
Binding of serum 2 to looped/cyclic peptides of protein M of SARS-CoV Urbani [1]: 0.8
Binding of serum 6 to linear peptides of protein M of SARS-CoV Urbani [1]: 0.3
Binding of serum 6 to looped/cyclic peptides of protein M of SARS-CoV Urbani [1]: 1.1
Binding of serum 37 to linear peptides of protein M of SARS-CoV Urbani [1]: 0.4
Binding of serum 37 to looped/cyclic peptides of protein M of SARS-CoV Urbani [1]: 0.8
Binding of serum 62 to linear peptides of protein M of SARS-CoV Urbani [1]: 0.4
Binding of serum 62 to looped/cyclic peptides of protein M of SARS-CoV Urbani [1]: 1.1
Binding of serum London to linear peptides of protein M of SARS-CoV Urbani [1]: 0.3
Binding of serum London to looped/cyclic peptides of protein M of SARS-CoV Urbani [1]: 0.4
Binding of serum SARS-green to linear peptides of protein M of SARS-CoV Urbani [1]: 0.4
Binding of serum SARS-green to looped/cyclic peptides of protein M of SARS-CoV Urbani [1]: 0.2
Binding of serum SARS-yellow to linear peptides of protein M of SARS-CoV Urbani [1]: 0.2
Binding of serum SARS-yellow to looped/cyclic peptides of protein M of SARS-CoV Urbani [1]: 0.4
Rabbit serum linear peptides [2]: 0.2
Rabbit serum looped peptides [2]: 0.4
Binding of Control Serum Blood-Bank to Looped peptides of the protein M of SARS-CoV Urbani [3]: 0.8
Binding of Control serum Blood-bank to linear peptides of the protein M of SARS-CoV Urbani [3]: 0.7
Binding of Control serum LUMC to linear peptides of the protein M of SARS-CoV Urbani [3]: 0.5
Binding of Control serum LUMC to looped peptides of the protein M of SARS-CoV Urbani [3]: 1.2

YFVASFRLFARTRSM
Binding of serum 1a to linear peptides of protein M of SARS-CoV Urbani [1]: 0.6
Binding of serum 1b to linear peptides of protein M of SARS-CoV Urbani [1]: 0.4
Binding of serum 2 to linear peptides of protein M of SARS-CoV Urbani [1]: 0.4
Binding of serum 6 to linear peptides of protein M of SARS-CoV Urbani [1]: 0.4
Binding of serum 37 to linear peptides of protein M of SARS-CoV Urbani [1]: 0.4
Binding of serum 62 to linear peptides of protein M of SARS-CoV Urbani [1]: 0.6
Binding of serum London to linear peptides of protein M of SARS-CoV Urbani [1]: 0.3
Binding of serum SARS-green to linear peptides of protein M of SARS-CoV Urbani [1]: 0.3
Binding of serum SARS-yellow to linear peptides of protein M of SARS-CoV Urbani [1]: 0.1
Recognition of the peptide by sera of SARS-CoV infected individuals, and form (linear, looped/cyclic) in which it is recognized [1]: recognized in looped/cyclic form
Rabbit serum linear peptides [2]: 0.6
Rabbit serum looped peptides [2]: 0.8
Binding of Control Serum Blood-Bank to Looped peptides of the protein M of SARS-CoV Urbani [3]: 0.9
Binding of Control serum Blood-bank to linear peptides of the protein M of SARS-CoV Urbani [3]: 0.6
Binding of Control serum LUMC to linear peptides of the protein M of SARS-CoV Urbani [3]: 0.3
Binding of Control serum LUMC to looped peptides of the protein M of SARS-CoV Urbani [3]: 0.7
